Test results published in patent publication US11633370B2, “Use of scavengers of reactive gamma-ketoaldehydes to extend cell lifespan and healthspan” (Vanderbilt University, priority 2016, dated 2023).

Legend:
[1] = tested on: VC199 SIR-2.1 mutants; assay: mtDNA copy number by qPCR, VC199; format: in vivo, C. elegans; details: with age or with SA treatment
Excerpt: Mitochondria lie at the center of aging biology, playing crucial roles in energy production, carbon substrate metabolism, apoptosis regulation, and redox balance and signaling. Since sirtuins play a major role in regulating mitochondrial function, the present inventors next wanted to investigate whether SA was exerting any of its effects via protection of mitochondrial processes. To investigate SA's effects on mitochondrial respiration, the present inventors administered SA to WT N2 (FIG. 5A) and non-functional SIR-2.1 mutant worms (FIG. 5B) and measured oxygen consumption rate (OCR) in whole worms over several days. […] The present inventors also examined the effect of SA treatment on mitochondrial DNA (mtDNA) integrity.
Relative mitochondrial and nuclear copy number were measured by quantitative, real-time PCR [90]. Primers for NADH dehydrogenase unit 1 (nd1) and a 164 bp region of the cox-4 gene were used in determination of mtDNA copy number. The nd1 forward primer 5′-[…]-3′ and reverse primer 5′-[…]-3′. Cox-4 forward primer 5′-GCCGACTGGAAGAACTTGTC-3′ and reverse primer 5′-[…]-3′. […] Amplified products were detected with SYBR Green (iQ™ SYBR® Green Supermix, Bio-Rad) and fluorescent signal intensities were determined by CFX96 Touch™ Real-Time PCR Detection System (Bio-Rad) by software CFX Manager™ (version 3.1). […]

[2] = tested on: N2 WT C. elegans; assay: Real-time RT-PCR (TaqMan) gene expression, N2; format: in vivo; details: p<0.05
Excerpt: First, to validate the microarray results, the present inventors performed real-time RT-PCR on four genes, siah-1, sma-4, F13D12.6, and ets-7 (FIG. 6B). […] Messenger RNA levels for siah-1 and sma-4 were decreased by nearly 25%, as well as F13D12.6 and ets-7 were increased by nearly 25% by SA administration (p<0.05). Pathway Analysis using Gene Ontology (GO) with WEB-based Gene SeT Analysis Toolkit (WEBGESTALT <http://bioinfo.vanderbilt.edu/webgestalt/>) highlighted the metabolic process, lipid metabolic process, proteolysis pathways among many others as being altered favorably by the administration of SA (see Supplemental Data). From the array data confirmed by RT-PCR, the present inventors identified the ETS class transcription factor ETS-7 as a protein of interest. ETS factors are known to be involved in regulating lipid metabolism and regulate lifespan in both Drosophila melanogaster and C. elegans. To investigate the role of ETS-7 in regulating lifespan downstream from salicylamine, SA was administered to the ets-7 gene knock-out strain, RB981 [F19F10.5(ok888) V]). […] The present inventors originally hypothesized that upregulation of ets-7 depends on SIR-2.1, which could result in enhanced longevity. In order to test this, the present inventors carried out real-time RT-PCR quantification of ets-7 in non-functional SIR-2.1 mutant nematodes treated with increasing doses of SA (FIG. 6E).
Total RNA was isolated via the Trizol method, as described previously. Following isolation, 2 μg total RNA was used for cDNA synthesis using the High Capacity cDNA Reverse Transcription Kit (Life Technologies), per manufacturer's instructions. Quantitative real time PCR (Bio-Rad) was conducted using TaqMan Gene Expression Assay Probes (Life Technologies) for each gene. Amplified products was normalized to housekeeping gene, ama-1 (RNA polymerase II) after determining fold difference using the comparative 2^−ΔΔct method. The following probes were used: ama-1 (Assay ID: Ce2462269_m1), ets-7 (Ce02477624_g1), F13D12.6 (Ce02439540_m1), siah-1 (Assay ID: Ce02462269_m1), and sma-4 (Assay ID: Ce202447346_1).

[3] = compared with pyridoxamine (PM); cited from earlier work
[4] = tested on: mice; details: cited from earlier work
[5] = tested on: daf-16(mu86); assay: Longevity assay, daf-16 gene knockout mutant strain; format: in vivo, C. elegans; details: SA from day 1 of adulthood; P<0.01 versus vehicle control
Description: C. elegans strains were cultured at 20° C. on standard nematode growth media (NGM) agar plates seeded with Escherichia coli strain NA22. The following strains were used in this work: wild-type C. elegans Bristol strain (N2), sir-2.1(ok434) IV, F19F10.5(ok888) V, and daf-16(mu86). Strains were obtained from the Caenorhabditis Genetics Center (University of Minnesota, St. Paul, Minn.). For generating cultures of 15-day-old (Day 15) adult worms, synchronized late-stage L4s/early young adult worms were transferred to peptone enriched 15 cm plates containing UV-irradiated OP50 E. coli and 0.12 mM 5-fluoro-2′-deoxyuridine (FUDR) to inhibit progeny production[88] with or without drug until harvest.
Survival cultures were grown on 60-mm agar plates; after the late-stage L4/young adult molt, approximately 100 adults were transferred onto SA-OP50-seeded NGM plates. Salicylamine drug plates were made fresh before transfer by spreading SA on top of the agar. […] Worms were maintained at 20° C. and live worms were counted during transfer to freshly made SA-OP50-NGM agar plates every 2-3 days. Survival was scored as movement upon slight touch with the platinum wire. […]
FIG. 7 (S1). […] Survival was assessed every 2 days until all the worms died. […] Data are expressed as means±SEM from four independent experiments. *P<0.01 as compared to vehicle control.

With NCc1ccccc1O [SA, salicylamine] as the compound, how does the “mtDNA copy number relative to nuclear DNA” value [1] read?
Its value is “no significant difference”.

And the “increase in ets-7 messenger RNA level” value ([2]; 500 μM SA, Day 15 WT N2)?
Its value is 32%.

And the “increase in ets-7 messenger RNA level” value ([2]; Day 15 WT N2, SA administration)?
The value was 25%.

What about the “decrease in siah-1 messenger RNA level” value ([2]; Day 15 WT N2) of the same compound?
Its value is about 25%.

And the “decrease in sma-4 messenger RNA level” value ([2]; Day 15 WT N2)?
The value was about 25%.

And the “increase in F13D12.6 messenger RNA level” value ([2]; Day 15 WT N2)?
The value was about 25%.

What about the lipophilicity [3] of the same compound?
The lipophilicity was “more lipophilic”.

What about the “tolerability, adverse events” value ([4]; approximately one year, via drinking water) of the same compound?
The value was “no evidence of intolerance and no evidence of excess adverse events”.

And the tumor formation ([4]; long-term SA treatment)?
Its tumor formation is “No excess tumor formation”.

And the “maximum and median lifespan” value [5]?
Its value is “increased maximum and median lifespan”.
